{
  "source": "patent US20210252045A1",
  "about": "“Method for inactivating and removing disease-related levels of sulfane sulfur from affected biological tissues with special relevance to Covid-19 virus infection” (priority 2019, published 2021)",
  "key": {"[1]": {"tested_on": "Rhinovirus of the common cold", "assay": "Ingesting sulfite at first symptoms of the common cold (inventor's self-administration)", "assay_type": "in vivo", "conditions": "oral, 250 mg every 4 hours for 24 hours, started at first symptoms (within 48 hours); the inventor themself", "protocol": "It appears to be important that this be started within 48 hours of first appearance of the symptoms although data is lacking on using the agent later in the course of the infection. The stated quantities are effective but might be refined. The total quantity in the above example is equivalent to drinking 4 bottles of some wines or ingesting 500 gm of certain dried fruits. Application of this example to Covid 19 would be a first TREATMENT for this disease."}, "[2]": {"conditions": "sulfur dioxide gas in water at pH above 3; cited from earlier work"}},
  "data": [
    {"smiles": "O=S([O-])S(=O)(=O)[O-].[K+].[K+]", "note": "[K. metabisulfite]", "values": [
      {"measurement": "course of common cold symptoms after ingestion", "setting": "[1]", "value": "symptoms clear without progressing to a full cold"}
    ]},
    {"smiles": "O=S(O)O", "note": "[sulfurous acid]", "values": [
      {"measurement": "pKa2", "setting": "[2]", "value": "~7"}
    ]}
  ]
}
